Patent US20140357713A1, “ANTIMICROBIAL COMPOUNDS AND METHODS OF USE” (NexMed Holdings, Inc., priority 2012, published 2014)
Where a name gives a salt, the structure may show the parent alone. Read-outs that look alike come from different tables or passages of the source. Values belong to the compound of their own block, whether it stands above or below them.

How the values were obtained:
[1] = test system: Escherichia coli (ATCC 25922); test: Minimum inhibitory concentration (MIC) assay, Example 33; assay type: cell-based; settings: for MIC: Escherichia coli
Outline: (§1)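 Broth microdilution MIC per CLSI guidelines, in CAMHB with serial 2-fold compound dilutions. Bacterial inocula were adjusted to a 0.5 McFarland standard, then diluted 1:100 and 1:2 in the wells. Plates were incubated at 35 °C, and the MIC was read according to CLSI.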

[2] = test system: Pseudomonas aeruginosa (ATCC 27853); test: as above; assay type: cell-based; settings: Pseudomonas aeruginosa
Outline: as §1

[3] = test system: Staphylococcus aureus (ATCC 6538); test: MIC assay with different strains, Example 35; assay type: cell-based
Protocol: (§2) The minimum inhibitory concentration (MIC) is used to determine the lowest concentration of a test product claiming antimicrobial effects that will inhibit growth of a microorganism. Each microbial suspension was adjusted approximately 10^7 to 10^8 colony forming units (CFU) per mL and labeled as the stock suspension. The stock suspension was further diluted to 1:200 in Mueller Hinton broth to obtain a test sample having a concentration of […]. The test sample was then tested for MIC as described in M202.R02. After incubation, each tube was examined for turbidity, which indicated growth or no growth. For the tubes where the product rendered the media turbid, an aliquot of the media was streaked onto agar plates to confirm growth or lack of growth.

[4] = test system: Escherichia coli ATCC 25922; test: MIC assay with different strains, Example 35; assay type: cell-based; settings: for MIC: Example 35
Protocol: as §2

[5] = test system: Staphylococcus aureus (MRSA) (ATCC 33592); test: MIC assay with different strains, Example 35; assay type: cell-based
Protocol: as §2

[6] = test system: Haemophilus influenza (ATCC 19418); test: MIC assay with different strains, Example 35; assay type: cell-based
Protocol: as §2

[7] = test system: Pseudomonas aeruginosa (ATCC 9027); test: MIC assay with different strains, Example 35; assay type: cell-based
Protocol: as §2

[8] = test system: Klebsiella pneumonia (ATCC 11296); test: MIC assay with different strains, Example 35; assay type: cell-based
Protocol: as §2

[9] = pH (Table 1); assay type: physicochemical
[10] = test system: Aspergillus niger (CMCC 98003); test: Minimum inhibitory concentration (MIC) assay, Example 33; assay type: cell-based; settings: Aspergillus niger
Outline: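 Conidia gently probed from sporulating colonies into RPMI 1640, set to 0.09-0.13 at 530 nm, then diluted 1:50 and mixed 1:2 with 2-fold serially diluted compounds. Following CLSI guidelines, incubation was at 35 °C before the MIC was recorded.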

[11] = CMCC98003, Table 19 summary, read-out: MIC
[12] = CMCC98003, n = 1, read-out: MIC Aspergillus niger
[13] = CMCC98003, n = 2, read-out: MIC Aspergillus niger
[14] = ATCC25922, n = 1, read-out: MIC E. coli
[15] = ATCC25922, n = 2, read-out: MIC E. coli
[16] = ATCC27853, Table 19 summary, read-out: MIC
[17] = ATCC27853, n = 1, read-out: MIC P. aeruginosa
[18] = ATCC27853, n = 2, read-out: MIC P. aeruginosa
[19] = ATCC25922, Table 19 summary of Example 33 and Example 35, read-out: MIC

Structure (SMILES): CCCCCCCCCCCCOC(=O)C(C)N(C)C (stereo not drawn) [Nex-05, Dodecyl 2-(dimethylamino)propanoate hydrochloride]
- MIC ([1]; ATCC25922, Table 19 summary of Example 33 and Example 35): 3130 µg/mL
- MIC ([1]; ATCC25922, read-out: MIC E. coli, n = 1): 3130 µg/mL
- MIC ([1]; ATCC25922, read-out: MIC E. coli, n = 2): 3130 µg/mL
- MIC E. coli ([1]; n = 1, listed as Nex-88, hydrochloride): 3130 µg/mL
- MIC ([2]; ATCC27853, Table 19 summary): 6250 µg/mL
- MIC ([2]; ATCC27853, read-out: MIC P. aeruginosa, n = 1): 6250 µg/mL
- MIC ([2]; ATCC27853, read-out: MIC P. aeruginosa, n = 2): 6250 µg/mL
- MIC ([3]; Example 35): 2.5%
- Growth/no growth ([3]; Sample Concentration 0.039%): Growth
- Growth/no growth ([3]; Sample Concentration 0.078%): Growth
- Growth/no growth ([3]; Sample Concentration 0.156%): Growth
- Growth/no growth ([3]; Sample Concentration 0.313%): Growth
- Growth/no growth ([3]; Sample Concentration 0.625%): Growth
- Growth/no growth ([3]; Sample Concentration 1.25%): Growth
- MIC [4]: 1.25%
- Growth/no growth ([4]; Sample Concentration 0.039%): Growth
- Growth/no growth ([4]; Sample Concentration 0.078%): Growth
- Growth/no growth ([4]; Sample Concentration 0.156%): Growth
- Growth/no growth ([4]; Sample Concentration 0.313%): Growth
- Growth/no growth ([4]; Sample Concentration 0.625%): Growth
- MIC ([5]; Example 35): 0.625%
- Growth/no growth ([5]; Sample Concentration 0.039%): Growth
- Growth/no growth ([5]; Sample Concentration 0.078%): Growth
- Growth/no growth ([5]; Sample Concentration 0.156%): Growth
- Growth/no growth ([5]; Sample Concentration 0.313%): Growth
- MIC ([6]; Example 35): 5%
- Growth/no growth ([6]; Sample Concentration 0.039%): Growth
- Growth/no growth ([6]; Sample Concentration 0.078%): Growth
- Growth/no growth ([6]; Sample Concentration 0.156%): Growth
- Growth/no growth ([6]; Sample Concentration 0.313%): Growth
- Growth/no growth ([6]; Sample Concentration 0.625%): Growth
- Growth/no growth ([6]; Sample Concentration 1.25%): Growth
- Growth/no growth ([6]; Sample Concentration 2.5%): Growth
- MIC ([7]; Example 35): 1.25%
- Growth/no growth ([7]; Sample Concentration 0.039%): Growth
- Growth/no growth ([7]; Sample Concentration 0.078%): Growth
- Growth/no growth ([7]; Sample Concentration 0.156%): Growth
- Growth/no growth ([7]; Sample Concentration 0.313%): Growth
- MIC ([8]; Example 35): 0.625%
- Growth/no growth ([8]; Sample Concentration 0.039%): Growth
- Growth/no growth ([8]; Sample Concentration 0.078%): Growth
- Growth/no growth ([8]; Sample Concentration 0.156%): Growth
- pH ([9]; hydrochloride): 2.87

Structure (SMILES): CCCCCCCCCCCCOC(=O)C(C)NC.Cl (stereo not drawn) [Nex-59, Dodecyl 2-(methylamino)propanoate hydrochloride]
- MIC [10, 11]: 50 µg/mL
- MIC [10, 12]: 50 µg/mL
- MIC [10, 13]: 50 µg/mL
- MIC [1, 14]: 50 µg/mL
- MIC [1, 15]: 50 µg/mL
- MIC [2, 16]: 3130 µg/mL
- MIC [2, 17]: 3130 µg/mL
- MIC [2, 18]: 3130 µg/mL
- MIC ([3]; Example 35): 0.04%
- Growth/no growth ([3]; Sample Concentration 0.01%): Growth
- Growth/no growth ([3]; Sample Concentration 0.02%): Growth
- MIC ([3]; Staphylococcus aureus, ATCC6538, Table 19 summary, read-out: MIC): 400 µg/mL
- MIC [4]: 0.16%
- Growth/no growth ([4]; Sample Concentration 0.01%): Growth
- Growth/no growth ([4]; Sample Concentration 0.02%): Growth
- Growth/no growth ([4]; Sample Concentration 0.04%): Growth
- Growth/no growth ([4]; Sample Concentration 0.08%): Growth
- Growth/no growth ([4]; Sample Concentration 0.16%): No
- Growth/no growth ([4]; Sample Concentration 0.32%): No
- Growth/no growth ([4]; Sample Concentration 0.63%): No
- Growth/no growth ([4]; Sample Concentration 1.25%): No
- Growth/no growth ([4]; Sample Concentration 2.5%): No
- MIC ([5]; Example 35): 0.02%
- Growth/no growth ([5]; Sample Concentration 0.01%): Growth
- Growth/no growth ([5]; Sample Concentration 0.02%): No
- Growth/no growth ([5]; Sample Concentration 0.04%): No
- Growth/no growth ([5]; Sample Concentration 0.08%): No
- Growth/no growth ([5]; Sample Concentration 0.16%): No
- Growth/no growth ([5]; Sample Concentration 0.32%): No
- Growth/no growth ([5]; Sample Concentration 0.63%): No
- Growth/no growth ([5]; Sample Concentration 1.25%): No
- Growth/no growth ([5]; Sample Concentration 2.5%): No
- MIC ([5]; Staphylococcus aureus, Table 19 summary, read-out: MIC): 200 µg/mL
- MIC ([6]; Example 35): ≦0.01%
- MIC ([6]; Haemophilus, ATCC19418): ≥ 100 µg/mL
- Growth/no growth ([6]; Sample Concentration 0.01%): No
- Growth/no growth ([6]; Sample Concentration 0.02%): No
- Growth/no growth ([6]; Sample Concentration 0.04%): No
- Growth/no growth ([6]; Sample Concentration 0.08%): No
- Growth/no growth ([6]; Sample Concentration 0.16%): No
- Growth/no growth ([6]; Sample Concentration 0.32%): No
- Growth/no growth ([6]; Sample Concentration 0.63%): No
- Growth/no growth ([6]; Sample Concentration 1.25%): No
- Growth/no growth ([6]; Sample Concentration 2.5%): No
- MIC ([7]; Example 35): 0.16%
- MIC ([7]; Pseudomonas aeruginosa, ATCC9027, Table 19 summary, read-out: MIC): 1600 µg/mL
- Growth/no growth ([7]; Sample Concentration 0.01%): Growth
- Growth/no growth ([7]; Sample Concentration 0.02%): Growth
- Growth/no growth ([7]; Sample Concentration 0.04%): Growth
- Growth/no growth ([7]; Sample Concentration 0.08%): Growth
- MIC ([8]; Example 35): 0.08%
- MIC ([8]; Klebsiella pneumoniae, ATCC11296, Table 19 summary, read-out: MIC): 800 µg/mL
- Growth/no growth ([8]; Sample Concentration 0.01%): Growth
- Growth/no growth ([8]; Sample Concentration 0.02%): Growth
- Growth/no growth ([8]; Sample Concentration 0.04%): Growth
- Growth/no growth ([8]; Sample Concentration 0.08%): No
- Growth/no growth ([8]; Sample Concentration 0.16%): No
- Growth/no growth ([8]; Sample Concentration 0.32%): No
- Growth/no growth ([8]; Sample Concentration 0.63%): No
- Growth/no growth ([8]; Sample Concentration 1.25%): No
- Growth/no growth ([8]; Sample Concentration 2.5%): No
- pH [9]: 2.17

- MIC [10, 11]: > 12500 µg/mL
- MIC [10, 12]: > 12500 µg/mL
- MIC [10, 13]: > 12500 µg/mL
- MIC [1, 19]: 3130 µg/mL
- MIC [1, 14]: 3130 µg/mL
- MIC [1, 15]: 3130 µg/mL
- MIC [2, 16]: 6250 µg/mL
- MIC [2, 17]: 6250 µg/mL
- MIC [2, 18]: 6250 µg/mL
- pH [9]: 2.04
Structure (SMILES): CCCCCCCCCCCCOC(=O)C(C)NC(C)C.Cl (stereo not drawn) [Nex-60, Dodecyl 2-(isopropylamino)propanoate hydrochloride]

- MIC [10, 11]: 50 µg/mL
- MIC [10, 12]: 50 µg/mL
- MIC [10, 13]: 25 µg/mL
- MIC [1, 19]: 780 µg/mL
- MIC [1, 14]: 780 µg/mL
- MIC [1, 15]: 1560 µg/mL
- MIC [2, 16]: 6250 µg/mL
- MIC [2, 17]: 6250 µg/mL
- MIC [2, 18]: 6250 µg/mL
- pH [9]: 1.50
Structure (SMILES): CCCCCCCCCCCCOC(=O)C(C)NCCO.Cl (stereo not drawn) [Nex-61, Dodecyl 2-((2-hydroxyethyl)amino)propanoate hydrochloride]

- MIC [10, 11]: 12.5 µg/mL
- MIC [10, 12]: 12.5 µg/mL
- MIC [10, 13]: 12.5 µg/mL
- MIC [1, 19]: 100 µg/mL
- MIC [1, 14]: 100 µg/mL
- MIC [1, 15]: 100 µg/mL
- MIC [2, 16]: 6250 µg/mL
- MIC [2, 17]: 6250 µg/mL
- MIC [2, 18]: 6250 µg/mL
- pH [9]: 0.73
Structure (SMILES): CCCCCCCCCCCCOC(=O)C(C)NCCN(CC)CC.Cl (stereo not drawn) [Nex-62, Dodecyl 2-((2-(diethylamino)ethyl)amino)propanoate dihydrochloride]
